Data published in patent publication EP4624465A1, “COMPOUND SERVING AS DDR1 KINASE INHIBITOR, AND MEDICINE” (Nippon Shinyaku Co., Ltd., priority 2022, dated 2024).
pIC50: −log10 of the molar value. Counter-ions that a name gives are not always drawn.

Molecular target: DDR1 kinase (Homo sapiens, UniProt Q08345)
Assay: Evaluation of DDR1 kinase inhibition (LANCE Ultra TR-FRET kinase assay)
Assay type: biochemical
Set-up: purchased Carna Biosciences 08-113
Details: DDR1 protein 0.5 nM, LANCE Ultra ULight-poly GAT substrate, 2 hours at room temperature, duplicate; read-out: DDR-1 IC50

DDR1 kinase, sequence (Q08345 19-876 isoform Q08345-2 limits assumed): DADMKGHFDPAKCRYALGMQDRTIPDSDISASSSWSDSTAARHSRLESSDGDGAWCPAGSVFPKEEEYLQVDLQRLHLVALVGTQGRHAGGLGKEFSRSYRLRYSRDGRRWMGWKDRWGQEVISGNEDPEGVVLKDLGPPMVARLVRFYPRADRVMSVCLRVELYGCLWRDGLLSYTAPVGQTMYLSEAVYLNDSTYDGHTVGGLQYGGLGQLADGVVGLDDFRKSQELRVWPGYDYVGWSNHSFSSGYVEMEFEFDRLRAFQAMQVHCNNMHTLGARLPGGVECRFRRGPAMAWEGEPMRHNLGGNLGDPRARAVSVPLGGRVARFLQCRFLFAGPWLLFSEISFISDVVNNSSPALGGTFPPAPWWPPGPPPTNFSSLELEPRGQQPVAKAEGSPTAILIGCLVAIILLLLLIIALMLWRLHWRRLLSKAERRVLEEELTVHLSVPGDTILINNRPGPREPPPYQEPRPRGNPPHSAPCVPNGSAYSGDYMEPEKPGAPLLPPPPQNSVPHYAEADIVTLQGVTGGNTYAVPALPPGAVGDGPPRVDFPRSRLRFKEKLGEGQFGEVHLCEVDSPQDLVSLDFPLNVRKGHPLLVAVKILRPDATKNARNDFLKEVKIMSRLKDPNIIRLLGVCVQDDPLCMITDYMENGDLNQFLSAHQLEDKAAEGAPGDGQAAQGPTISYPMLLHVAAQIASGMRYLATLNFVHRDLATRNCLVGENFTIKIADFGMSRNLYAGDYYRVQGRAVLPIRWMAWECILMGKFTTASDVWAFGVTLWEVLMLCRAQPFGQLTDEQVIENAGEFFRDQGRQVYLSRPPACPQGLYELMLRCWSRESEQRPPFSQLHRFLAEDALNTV

Row | Structure (SMILES) | pIC50
1 | Nc1cc(C(=O)N2CC(c3nn(CC#Cc4ccccc4)c4cc(F)cc(F)c34)C2)ccn1 [Compound E-152, 4-{3-[4,6-difluoro-1-(3-phenylprop-2-yn-1-yl)-1H-indazol-3-yl]azetidine-1-carbonyl)pyridin-2-amine] | 7.05
2 | Nc1cc(C(=O)N2CC(c3nn(Cc4ccccc4C(F)(F)F)c4cccc(F)c34)C2)ccn1 [Compound E-114, 4-[3-(4-fluoro-1-{[2-(trifluoromethyl)phenyllmethyl}-1H-indazol-3-yl)azetidine-1-carbonyl]pyridin-2-amine hydrochloride] | 7.25
3 | COc1cnccc1C(=O)N1CC(c2nn(CC(=O)N3CCC[C@H]3C(F)(F)F)c3cc(F)cc(F)c23)C1 [Compound E-133, 2-{4,6-difluoro-3-[1-(3-methoxypyridine-4-carbonyl)azetidin-3-yl)-1H-indazol-1-yl}-1-[(28)-2-(trifluoromethyl)pyrrolidin-1-yl]ethan-1-one] | 7.64
4 | Nc1cc(C(=O)N2CC(c3nn(Cc4ccc(C(F)(F)F)cc4)c4cncc(F)c34)C2)ccn1 [Compound E-151, 4-[3-(4-fluoro-1-{[4-(trifluromethyl)phenyl]methyl}-1H-pyrazolo[3,4-c]pyridin-3-yl)azetidine-1-carbonyl]pyridin-2-amine] | 6.80
5 | Nc1cc(C(=O)N2CC=C(c3nn(CC(=O)N4CCC[C@H]4C(F)(F)F)c4ccccc34)CC2)c(F)cn1 [Compound E-47, 2-{3-[1-(2-amino-5-fluoropyridine-4-carbonyl)-1,2,3,6-tetrahydropyridin-4-yl]-1H-indazol-1-yl}-1-[(2S)-2-(trifluoromethyl)pyrrolidin-1-yl]ethan-1-one] | 6.85
6 | Nc1cc(C(=O)N2CC(c3nn(CC4Cc5ccccc5C4)c4cc(F)cc(F)c34)C2)ccn1 [Compound E-171, 4-(3-{1-[(2,3-dihydro-1H-inden-2-yl)methyl]-4,6-difluoro-1H-indazol-3-yl}azetidine-1-carbonyl)pyridin-2-amine] | 7.47
7 | CO[C@H]1CCN(C(=O)Cn2nc(C3CN(C(=O)c4cc(N)ncc4F)C3)c3ccccc32)C1 [Compound E-230, 2-{3-[1-(2-amino-5-fluoropyridine-4-carbonyl)azetidin-3-yl]-1H-indaaol-1-yl}-1-[(3S)-3-methoxypyrrolidin-1-yl]ethan-1-one] | 7.27
8 | Nc1cc(C(=O)N2CCC(c3nn(Cc4ccc(C(F)(F)F)cn4)c4cccc(F)c34)CC2)ccn1 [Compound E-9, 4-[4-(4-fluoro-1-{[5-(trifluoromethy)pyridin-2-yl]methyl}-1H-indazol-3-yl)piperidine-1-carbonyl]pyridin-2-amine] | 7.85
9 | Cc1ccc(-c2nc(Cn3nc(C4CN(C(=O)c5ccnc(N)c5)C4)c4c(F)cccc43)no2)nn1 [Compound E-154, 4-[3-(4-fluoro-1-{[5-(6-methylpyridazin-3-yl)-1,2.4-oxadiazol-3-yl}methyl}-1H-indazol-3-yl)azetidine-1-carbony1]pyridin-2-amine] | 6.57
10 | CC(C)(C)NC(=O)Cn1nc(C2CN(C(=O)c3ccnc(N)c3)C2)c2ccccc21 [Compound E-198, 2-{3-[1-(2-aminopyridine-4-carbonyl)azetidin-3-yl]-1H-indazol-1-yl}-N-tert-butylacetamide] | 7.51
11 | CC1(C)CN(C(=O)Cn2nc(C3CN(C(=O)c4cc(N)ncc4F)C3)c3c(F)cc(F)cc32)CCO1 [Compound E-176, 2-{3-[1-(2-amino-5-fluoropyridine-4-carbonyl)azetidin-3-yl)-4,6-difluoro-1H-indazol-1-yl}-1-(2,2-dimethylmorpholin-4-yl)ethan-1-one] | 8.08
12 | CN(CC(F)(F)F)C(=O)Cn1nc(C2CN(C(=O)c3ccnc(N)n3)C2)c2c(Cl)c(F)ccc21 [Compound E-287, 2-{3-(1-(2-aminopyrimidine-4-carbonyl)azetidin-3-yl]-4-chloro-5-fluoro-1H-indazol-1-yl}-N-methyl-N-(2,2,2-trifluoroethyl)acetamide] | 8.11
13 | CC1(c2nn(CC(=O)N3CCC[C@H]3C(F)(F)F)c3ccccc23)CN(C(=O)c2ccnc(N)c2)C1 [Compound E-6, 2-{3-[1-(2-aminopyridine-4-carbonyl)-3-methylazetidin-3-yl]-1H-indazol-1-yl}-1-[(2S)-2-(trifluoromethyl)pyrrolidin-1-yl]ethan-1-one] | 8.15
14 | Nc1cc(C(=O)N2CC(c3nn(CC(=O)N4CC5CCC(C4)O5)c4ccccc34)C2)c(F)cn1 [Compound E-258, 2-{3-[1-(2-amino-5-fluoropyridine-4-carbonyl)azetidin-3-yl]-1H-indazol-1-yll-1-18-oxa-3-azabicyclo[3.2.1}octan-3-yl]ethan-1-one] | 7.13

Now those with a higher pIC50, led by results:

Row | pIC50 | Structure (SMILES)
15 | 8.80 | Nc1nccc(C(=O)N2CC(c3nn(CC(=O)N4CCC[C@H]4C(F)(F)F)c4ccc(Cl)cc34)C2)n1 [Compound E-290, 2-{3-[1-(2-aminopyrimidine-4-carbonyl)azetidin-3-yl]-5-chloro-1H-indazol-1-yl}-1-[(28)-2-(trifluoromethyl)pyrrolidin-1-yl]ethan-1-one]
16 | 8.35 | C[C@@H]1CCC[C@H](C)N1C(=O)Cn1nc(C2CN(C(=O)c3cc(N)ncc3F)C2)c2ccccc21 [Compound E-266, 2·{3-[1-(2-amino-5-fluoropyridine-4-carbonyl)azetidin-3-yl]-1H-indazol-1-yl}-1-[(2R,68)-2,6-dimethylpiperidin-1-yl]ethan-1-one]
17 | 9.22 | CC1(C)COCCN1C(=O)Cn1nc(C2CN(C(=O)c3cc(N)ncc3F)C2)c2ccccc21 [Compound E-187, 2-{3-[1-(2-amino-5-fluoropyridine-4-carbonyl)azetidin-3-yl]-1H-indazol-1-yl}-1-(3,3-dimethylmorpholin-4-yl)ethan-1-one]
18 | 8.89 | Nc1cc(C(=O)N2CC(c3nn(CC(=O)N4CCO[C@@H](C(F)(F)F)C4)c4ccccc34)C2)c(F)cn1 [Compound E-192, 2-{3-[1-(2-amino-5-fluoropyridine-4-carbonyl)azetidin-3-yl]-1H-indazol-1-yl}-1-[(2R)-2-(trifluoromethyl)morpholin-4-yl]ethan-1-one]
19 | 8.89 | Nc1cc(C(=O)N2CC(F)(c3nn(CC(=O)N4CCC[C@H]4C(F)(F)F)c4ccccc34)C2)c(F)cn1 [Compound E-285, 2-(3-[1-(2-amino-5-fluoropyridine-4-carbonyl)-3-fluoroazetidin-3-yl]-1H-indazol-1-yl}-1-[(2S)-2-(trifluoromethyl)pyrrolidin-1-yl]ethan-1-one]
20 | 8.68 | CC[C@@H]1CCCN1C(=O)Cn1nc(C2CN(C(=O)c3ccnc(N)c3)C2)c2ccccc21 [Compound E-222, 2-{3-[1-(2-aminopyridine-4-carbonyl)azetidin-3-yl)-1H-indazol-1-yl}-1-[(2R)-2-ethylpyrrolidin-1-yl]ethan-1-one]
21 | 8.41 | CN(C(=O)Cn1nc(C2CN(C(=O)c3cc(N)ncc3F)C2)c2ccccc21)C(C)(C)C [Compound E-268, 2-{3-[1-(2-amino-5-fluoropyridine-4-carbonyl)azetidin-3-yl]-1H-indazol-1-yl}-N-tert-butyl-N-methylacetamide]
22 | 8.44 | CC(C)(C)OC(=O)Cn1nc(C2CN(C(=O)c3cc(N)ncc3F)C2)c2ccccc21 [Compound E-220, tert-butyl 2-{3-[1-(2-amino-5-fluoropyridine-4-carbony)azetidin-3-yl]-1H-indazol-1-yl}acetate]
23 | 8.35 | Nc1nccc(C(=O)N2CC(c3nn(CC(=O)N4CCC[C@H]4C(F)(F)F)c4cc(F)c(F)cc34)C2)n1 [Compound E-283, 2-{3-[1-(2-aminopyrimidine-4-carbonyl)azetidin-3-yl]-5,6-diffuoro-1H-indazol-1-yl}-1-[(2S)-2-(trifluoromethyl)pyrrolidin-1-yl}ethan-1-one]
24 | 9.10 | O=C(c1ccc2[nH]ncc2c1)N1CC(c2nn(CC(=O)N3CCC[C@H]3C(F)(F)F)c3cc(F)cc(F)c23)C1 [Compound E-140, 2-{4,6-difluoro-3-[1-(1H-indazole-5-carbonyl)azetidin-3-yl]-1H-indazol-1-yl}-1-[(28)-2-(trifluoromethyl)pyrrolidin-1-yl]ethan-1-one]
25 | 8.82 | Nc1cc(C(=O)N2CC(c3nn(CC(=O)N4CCO[C@@H](C(F)(F)F)C4)c4ccccc34)C2)ccn1 [Compound E-193, 2-{3-[1-(2-aminopyridine-4-carbonyl)azetidin-3-yl]-1H-indazol-1-yl}-1-[(2R)-2-(trifluoromethyl)morpholin-4-yl]ethan-1-one]
26 | 8.96 | Nc1cc(C(=O)N2CCC(c3nn(CC(=O)N4CCC[C@H]4C(F)(F)F)c4cccc(F)c34)CC2)c(F)cn1 [Compound E-174, 2-{3-[1-(2-amino-5-fluoropyridine-4-carbonyl)piperidin-4-yl]-4-fluoro-1H-indazol-1-yl}-1-[(2S)-2-(trifluoromethyl)pyrrolidin-1-yl]ethan-1-one]
27 | 8.77 | Cc1ccc2c(c1)c(C1CN(C(=O)c3cc(N)ncc3F)C1)nn2CC(=O)N1CCC[C@H]1C(F)(F)F [Compound E-201, 2-{3-[1-(2-amino-5-fluoropyridine-4-carbonyl)azetidin-3-yl]-5-methyl-1H-indazol-1-yl}-1-[(28)-2-(trifluoromethyl)pyrrolidin-1-yl]ethan-1-one]
28 | 8.29 | Nc1cc(C(=O)N2CC(c3nn(Cc4noc(C5(C(F)(F)F)CC5)n4)c4cncc(F)c34)C2)ccn1 [Compound E-14, 4-{3-[4-fluoro-1-({5-[1-(trifluoromethyl)cyclopropyl]-1,2,4-oxadiazol-3-yl)methyl)-1H-pyrazolo[3,4-c]pyridin-3-yl]azetidine-1-carbonyl}pyridin-2-amine]
29 | 8.96 | Nc1cc(C(=O)N2CC(c3nn(CC(=O)N4CCC[C@H]4C(F)(F)F)c4ccc(F)cc34)C2)ccn1 [Compound E-202, 2-{3-[1-(2-aminopyridine-4-carbonyl)azetidin-3-yl]-5-fluoro-1H-indazol-1-yl}-1-[(28)-2-(trifluoromethyl)pyrrolidin-1-yl]ethan-1-one]
30 | 8.89 | Nc1cc(C(=O)N2CC(c3nn(CC(=O)N4CCc5ccc(C6CC6)cc54)c4cc(F)cc(F)c34)C2)ccn1 [Compound E-172]
